Values quoted from earlier work, collected in patent US20040110774A1, “Methods and formulations of using A1 adenosine receptor antagonists and P2x purinoceptor antagonists for the treatment and prevention of immune system disorders” (priority 2001, published 2004).
Values belong to the compound of their own block, whether it stands above or below them.

How the values were obtained:
A1 adenosine receptor = molecular target: T1, A1 adenosine receptor (Homo sapiens, UniProt P30542); conditions: in tissues
T1 sequence (P30542 1-326): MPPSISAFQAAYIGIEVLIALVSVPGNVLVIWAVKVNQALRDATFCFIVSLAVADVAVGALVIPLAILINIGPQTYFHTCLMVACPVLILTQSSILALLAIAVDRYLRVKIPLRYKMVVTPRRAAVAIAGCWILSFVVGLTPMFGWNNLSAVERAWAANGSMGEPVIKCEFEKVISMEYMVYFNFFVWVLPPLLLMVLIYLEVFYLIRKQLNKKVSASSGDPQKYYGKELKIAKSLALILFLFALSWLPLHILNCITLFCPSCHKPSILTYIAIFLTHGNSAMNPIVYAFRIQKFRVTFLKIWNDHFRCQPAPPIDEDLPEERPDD

RAW 264.7 macrophages = conditions: LPS-stimulated RAW 264.7 macrophages

nonspecific binding (A1 adenosine receptor): less than 1%
Structure (SMILES): CCCn1c(=O)c2[nH]c(C3CCCC3)nc2n(CCC)c1=O [DPCPX, 1,3-dipropyl-8-cyclopentylxanthine]

Structure (SMILES): Cc1nc(N=Nc2ccc(S(=O)(=O)O)cc2S(=O)(=O)O)c(COP(=O)(O)O)c(C=O)c1O [PPADS, pyridoxal-phosphate-6-azophenyl-2′,4′-disulphonic acid]
effect of LPS on the expression of iNOS (iNOS): prevent the effect of LPS on the expression of iNOS

Structure (SMILES): Nc1ncnc2c1ncn2[C@@H](C=O)O[C@@H](C=O)COP(=O)(O)OP(=O)(O)OP(=O)(O)O [o-ATP, Periodate oxidized adenosine 5′-triphosphate]
NF-kappa-B-like binding activity (RAW 264.7 macrophages): inhibit NF-kappa-B-like binding activity
effects of LPS on nitric oxide (NO) production (RAW 264.7 macrophages): inhibit the effects of LPS on nitric oxide (NO) production
expression of inducible nitric oxide synthase (iNOS) (RAW 264.7 macrophages): inhibit the expression of inducible nitric oxide synthase (iNOS)
